The source of these data is patent US20070253896A1, “7,9-Dihydro-Purin-8-One and Related Analogs as HSP90-Inhibitors” (CONFORMA THERAPEUTICS CORPORATION, priority 2006, published 2007).

Test [1] relates to MCF7 breast carcinoma cells. The experiment in a line: MTS Assay. It counts as cell-based. To be noted: Homo sapiens, concentration giving 50% reduction in viable cell number. The method, then:
MTS assays measure the cytotoxicity of geldanamycin derivatives. MTS (3-(4,5-dimethylthiazol-2-yl)-5-(3-carboxymethoxyphenyl)-2-(4-sulfophenyl)-2H-tetrazolium) is a tetrazolium dye that is converted to a formazan product by dehydrogenase enzymes of metabolically active cells (Corey, A. et al. “Use of an aqueous soluble tetrazolium/formazan assay for cell growth assays in culture,” Cancer Commun. 1991, 3, 207-212). Cells were seeded in 96 well plates at 2000 cells/well and allowed to adhere overnight in Dulbecco's modified Eagle's medium supplemented with 10% fetal bovine serum. The final culture volume was 100 μl. Viable cell number was determined by using the Celltiter 96 AQueous Non-radioactive Cell Proliferation Assay (Promega, Madison Wis.). The MTS/PMS (phenazine methosulfate) solution was mixed at a ratio of 20:1, and 20 μL was added per well to 100 μl of culture medium. After 2-4 hours, the formation of the formazan product was measured at 490 nm absorbance using a multiwell plate spectrophotometer. Background was determined by measuring the Abs 490 nm of cell culture medium and MTS-PMS in the absence of cells and was subtracted from all values. Percent viable cells was calculated as follows: % viable cells=(Abs at 490 nm treated cells/Abs at 490 nm untreated cells)×100
The effect of selected compounds of the invention on MCF7 breast carcinoma cells according to the MTS assay is summarized in Table 2. IC50 was defined as the concentration of the compound which gave rise to 50% reduction in viable cell number.

The next test concerns HER2/Neu protein. In words: HER2 Degradation Assay. The conditions noted are these: Homo sapiens; MCF7 breast carcinoma cells, 16 h incubation, flow cytometry; concentration at which there was 50% degradation of the HER2/Neu protein. In kind it is cell-based. How it is done:
MCF7 breast carcinoma cells (ATCC) were grown in Dulbecco's modified Eagle's medium (DMEM) containing 10% fetal bovine serum (FBS) and 10 mM HEPES, and plated in 24 well plates (50% confluent). Twenty-four hrs later (cells are 65-70% confluent), test compounds were added and incubated overnight for 16 h. […] The wells were washed with 1 mL phosphate buffered saline (PBS), and 200 μL trypsin was added to each well. After trypsinization was complete, 50 μL of FBS was added to each well. Then 200 μL cells was transferred to 96 well plates. The cells were pipetted up and down to obtain a single cell suspension. The plates were centrifuged at 2,500 rpm for 1 min using a Sorvall Legend RT™0 tabletop centrifuge (Kendro Laboratory Products, Asheville, N.C.). The cells were then washed once in PBS containing 0.2% BSA and 0.2% sodium azide (BA buffer). Phycoerythrin (PE) conjugated anti HER2/Neu antibody (Becton Dickinson, #340552), or PE conjugated anti-keyhole limpet hemocyanin [KLH] (Becton Dickinson; #340761) control antibody was added at a dilution of 1:20 and 1:40 respectively (final concentration was 1 μg/mL) and the cells were pipetted up and down to form a single cell suspension, and incubated for 15 mins. The cells were washed twice with 200 μL BA buffer, and resuspended in 200 μL BA buffer, and transferred to FACSCAN tubes with an additional 250 µL BA buffer. Samples were analyzed using a FACS Calibur™ flow cytometer (Becton Dickinson, San Jose, Calif.) equipped with Argon-ion laser that emits 15 mW of 488 nm light for excitation of the PE fluorochrome. 10,000 events were collected per sample. A fluorescence histogram was generated and the mean fluorescence intensity (MFI) of each sample was determined using Cellquest software. The background was defined as the MFI generated from cells incubated with control IgG-PE, and was subtracted from each sample stained with the HER2/Neu antibody. Cells incubated with DMSO were used as untreated controls since the compounds were resuspended in DMSO. Percent degradation of HER2 was calculated as follows: % HER2 degraded=[(MFI untreated cells−MF1 treated cells)/MFI untreated cell]×100
IC50 is defined as the concentration at which there was 50% degradation of the HER2/Neu protein.

Structures are written as SMILES. A value given as a limit tells only on which side of the number the result lay.

As usually defined, the IC50 is the point on the concentration scale where inhibition reaches its midpoint. A higher IC50 goes with weaker potency.

As to `Cc1cnc(Cn2c(=O)[nH]c3c(Cl)nc(N)nc32)c(C)c1I` [Example 6, 2-amino-6-chloro-9-((4-iodo-3,5-dimethylpyridin-2-yl)methyl)-7H-purin-8(9H)-one], the figures for the IC50 (in test [1]; in the test with HER2/Neu protein) were 300 nM and 70 nM, respectively.

As for `COc1c(C)cnc(Cn2c(=O)n(CCC=C(C)C)c3c(Cl)nc(N)nc32)c1C` [Example 20, 2-Amino-6-chloro-9-(4-methoxy-3,5-dimethyl-pyridin-2-ylmethyl)-7-(4-methyl-pent-3-enyl)-7,9-dihydro-purin-8-one], the 50% inhibitory concentration (IC50) in test [1] was greater than 1000 nM; with HER2/Neu protein it was 140 nM.

Turning to `C=CCCCn1c(=O)n(Cc2ncc(C)c(OC)c2C)c2nc(N)nc(Cl)c21` [Example 35, 2-Amino-6-chloro-9-(4-methoxy-3,5-dimethyl-pyridin-2-ylmethyl)-7-pent-4-enyl-7,9-dihydro-purin-8-one], the IC50 in test [1] stood at 1000 nM; in the test with HER2/Neu protein, 160 nM.

With `COc1c(C)cnc(Cn2c(=O)n(CCC(F)=C(F)F)c3c(Cl)nc(N)nc32)c1C` [Example 71, 2-Amino-6-chloro-9-(4-methoxy-3,5-dimethyl-pyridin-2-ylmethyl)-7-(3,4,4-trifluoro-but-3-enyl)-7,9-dihydro-purin-8-one], the IC50 in test [1] is greater than 1000 nM; in the test with HER2/Neu protein, 160 nM.

Consider `COC(=O)c1ccc(Cn2c(=O)n(Cc3ncc(C)c(OC)c3C)c3nc(N)nc(Cl)c32)cc1` [Example 80, 4-[2-Amino-6-chloro-9-(4-methoxy-3,5-dimethyl-pyridin-2-ylmethyl)-8-oxo-8,9-dihydro-purin-7-ylmethyl]-benzoic acid methyl ester], for which the IC50 was greater than 1000 nM in test [1] and 160 nM with HER2/Neu protein.

`COc1c(C)cnc(Cn2c(=O)n(Cc3ccccn3)c3c(Cl)nc(N)nc32)c1C` [Example 82, 2-Amino-6-chloro-9-(4-methoxy-3,5-dimethyl-pyridin-2-ylmethyl)-7-pyridin-2-ylmethyl-7,9-dihydro-purin-8-one]: the concentration for half-maximal inhibition (IC50) came out at 1000 nM in test [1] and 170 nM in the test with HER2/Neu protein.

For `COc1c(C)cnc(Cn2c(=O)n(CCn3cccc3)c3c(Cl)nc(N)nc32)c1C` [Example 89, 2-Amino-6-chloro-9-(4-methoxy-3,5-dimethyl-pyridin-2-ylmethyl)-7-(2-pyrrol-1-yl-ethyl)-7,9-dihydro-purin-8-one], the 50% inhibitory concentration (IC50) in test [1] stood at 1000 nM; in the test on HER2/Neu protein it was 120 nM.

With `Cc1cnc(Cn2c(=O)n(CCn3cccc3)c3c(Cl)nc(N)nc32)c(C)c1I` [Example 96, 7-(2-(1H-pyrrol-1-yl)ethyl)-2-amino-6-chloro-9-((4-iodo-3,5-dimethylpyridin-2-yl)methyl)-7H-purin-8(9H)-one], the IC50 in test [1] turned out to be 300 nM; in the test with HER2/Neu protein it was 42 nM.

Consider `Cc1cnc(Cn2c(=O)n(CCN(C(C)C)C(C)C)c3c(Cl)nc(N)nc32)c(C)c1I` [Example 98, 2-amino-6-chloro-7-(2-(diisopropylamino)ethyl)-9-((4-iodo-3,5-dimethylpyridin-2-yl)methyl)-7H-purin-8(9H)-one], for which the IC50 was 600 nM in test [1] and 30 nM with HER2/Neu protein.

As for `Cc1cnc(Cn2c(=O)n(Cc3ccccn3)c3c(Cl)nc(N)nc32)c(C)c1I` [Example 99, 2-amino-6-chloro-9-((4-iodo-3,5-dimethylpyridin-2-yl)methyl)-7-(pyridin-2-ylmethyl)-7H-purin-8(9H)-one], the IC50 is greater than 1000 nM in test [1] and 120 nM in the test on HER2/Neu protein.

On to `CC(=O)n1c(=O)n(Cc2ncc(C)c(I)c2C)c2nc(N)nc(Cl)c21` [Example 105, 7-acetyl-2-amino-6-chloro-9-((4-iodo-3,5-dimethylpyridin-2-yl)methyl)-7H-purin-8(9H)-one], for which the IC50 in test [1] came to 300 nM; in the test on HER2/Neu protein, 90 nM.

Turning to `CCCN(CCC)CCn1c(=O)n(Cc2ncc(C)c(I)c2C)c2nc(N)nc(Cl)c21` [Example 107, 2-amino-6-chloro-7-(2-(dipropylamino)ethyl)-9-((4-iodo-3,5-dimethylpyridin-2-yl)methyl)-7H-purin-8(9H)-one], the half-inhibitory concentration (IC50) was greater than 1000 nM in test [1] and 130 nM in the test with HER2/Neu protein.

With `Cc1cnc(Cn2c(=O)n(CCN(C)C(C)C)c3c(Cl)nc(N)nc32)c(C)c1I` [Example 108, 2-amino-6-chloro-9-((4-iodo-3,5-dimethylpyridin-2-yl)methyl)-7-(2-(isopropyl(methyl)amino)ethyl)-7H-purin-8(9H)-one], the IC50 in test [1] was found to be 700 nM; in the test on HER2/Neu protein, 140 nM.
